# According to US3935309A, “Synergistic combinations of phosphonomycin and bacteriostatic agents” (Merck & Co., Inc., priority 1974, dated 1976):
# “And” between values parts separate entries of the source, which are not always exact repeats. Equal values may be shown once.
# What was measured:
# Streptococcus faecalis [1] = test: MIC by two-fold serial broth dilution, alone and in combination (Example 1); format: cell-based; conditions: 2nd substance novobiocin; MIC/2 instead of ≤ MIC/4
# bacterial cell wall = test: mode of action on bacteria; format: cell-based
# Source text: In accordance with one embodiment of this invention, pathogenic bacteria are controlled by concomitantly contacting these pathogens with phosphonomycin and a bacteriostatic chemotherapeutic agent. The action of the phosphonomycin is to potentiate, augment or synergise the activity of the bacteriostatic agent. This potentiation of the bacteriostats is indeed unexpected since the bacteriostatic agents have an entirely different mode of action than phosphonomycin. […] Thus, phosphonomycin is indeed unique among antibiotics in that it is capable of potentiating the important bacteriostatic chemotherapeutic agents.
# [2] = system: Pseudomonas aeruginosa 3210; test: Combined antibiotic therapy of experimental infection in mice (Example 5); format: in vivo, mice infected with Pseudomonas aeruginosa 3210; conditions: 10 LD50
# Source text: (§1) For example, using Escherichia coli 2017 as the infecting agent, sodium phosphonomycin was titrated alone and in the presence 5 and also in the presence of 0.5γtetracycline, while tetracycline was titrated alone and in the presence of 50γ, and also in the presence of 5γof sodium phosphonomycin. The two drugs were given by the subcutaneous route at separate sites on the ventral surface of the mouse. Such therapy was given only at the time of infection for the Escherichia coli and Pseudomonas aeruginosa tests but both at the time of infection and 6 hours later for all other tests. Infection was given intraperitoneally using broth suspensions of the test organism.
# [3] = system: Klebsiella pneumoniae "B"; test: as above; format: in vivo, mice infected with Klebsiella pneumoniae "B"; conditions: 7 LD50
# Source text: as §1
# pathogenic bacteria = test: in vitro combination tests with various pathogens (general description); format: cell-based
# Source text: Other experimental results have shown that novobiocin, chlortetracycline and sulfisoxazole are potentiated when combined with phosphonomycin and tested with various strains of pathogenic bacteria.
# [4] = system: test organisms of Example 1; test: Summary of the twelve combination synergy tests (Example 1); format: cell-based
# Protocol: (§2) The MIC (minimum inhibitory concentration) of phosphonomycin and each of the other antibiotics by itself was determined before the combination synergy experiment was begun, as follows: 2 ml. of a double strength solution in sterile distilled water of the highest strength to be tested (usually 1000γ) was added to a tube of double strength nutrient broth (NB) and mixed thoroughly. Two-fold serial dilutions were then made by transferring 2 ml. to the next tube (1 × NB) and so on for approximately 12 tubes. The tubes were inoculated with one drop each of a 1:50 dilution of a culture adjusted to a Lumetron 60 reading in NB + 0.2% yeast extract so as to provide a concentration of cells of approximately 25,000/ml. The tubes were then incubated at 37°C. and examined for growth at 24, 48 and 72 hours.
# In the combination experiment, the MIC value obtained as described above was used as approximately the midpoint of the range to be tested for each of the two antibiotics of the combination. In a manner similar to the above, two-fold dilutions of the first substance in the combination were made except that 1.8 ml. volumes were used and a 2.2 × strength solution of both the antibiotic and the NB were made. […]
# [5] = system: Streptococcus pyogenes 3009; test: Combined antibiotic therapy of experimental infection in mice (Example 5); format: in vivo, mice infected with Streptococcus pyogenes 3009; conditions: 6 LD50
# Source text: as §1
# Escherichia coli 2017 = test: Combined antibiotic therapy of Escherichia coli infection in mice (Example 5); format: in vivo, mice infected with Escherichia coli 2017
# Source text: as §1
# Klebsiella pneumoniae = test: MIC by two-fold serial broth dilution, alone and in combination (Example 1); format: cell-based
# Protocol: as §2
# (§3) In the combination experiment, the MIC value obtained as described above was used as approximately the midpoint of the range to be tested for each of the two antibiotics of the combination. In a manner similar to the above, two-fold dilutions of the first substance in the combination were made except that 1.8 ml. volumes were used and a 2.2 × strength solution of both the antibiotic and the NB were made. The second antibiotic of the combination was added to duplicate rows of serial dilutions of the first substance as follows: 0.2 ml. in NB of a [formula] and a [formula] respectively, of the second substance was added to each tube in a row of serial dilutions of the first antibiotic. The final concentration that resulted enabled the determination of the effect of both MIC/4 and MIC/8 of each substance in the presence of from approximately 32 MIC to [formula] of the other. Inocula were added as in the initial single MIC experiment.
# Pseudomonas aeruginosa = test: as above; format: cell-based
# Protocol: as §2, §3
# Streptococcus faecalis [6] = test: as above; format: cell-based
# Protocol: as §2, §3
# Proteus vulgaris = test: as above; format: cell-based
# Protocol: as §2, §3
# Staphylococcus aureus = test: as above; format: cell-based
# Protocol: as §2, §3
# Pseudomonas stutzeri = test: as above; format: cell-based
# Protocol: as §2, §3
# [7] = phosphonomycin titrated, novobiocin constant 100
# [8] = phosphonomycin titrated, novobiocin constant 1000
# [9] = alone, therapy at 0 and 6 hours, phosphonomycin as sodium salt
# [10] = chloramphenicol repeat test, 7 LD50, phosphonomycin titrated, chloramphenicol constant 5
# [11] = chloramphenicol repeat test, 7 LD50, phosphonomycin titrated, chloramphenicol constant 50
# [12] = chloramphenicol test 1, 9 LD50, phosphonomycin titrated, chloramphenicol constant 3
# [13] = chloramphenicol test 1, 9 LD50, phosphonomycin titrated, chloramphenicol constant 30
# [14] = tetracycline repeat test, 7 LD50, phosphonomycin titrated, tetracycline constant 1
# [15] = tetracycline repeat test, 7 LD50, phosphonomycin titrated, tetracycline constant 10
# [16] = tetracycline test 1, 9 LD50, alone
# [17] = tetracycline test 1, 9 LD50, phosphonomycin titrated, tetracycline constant 0.5
# [18] = tetracycline test 1, 9 LD50, phosphonomycin titrated, tetracycline constant 5
smiles,measurement,setting,value
"C[C@@H]1O[C@@H]1P(=O)(O)O [Phosphonomycin, (-) (cis-1,2-epoxypropyl)phosphonic acid]",Phosphonomycin MIC in presence of 2nd substance,Streptococcus faecalis [1],24 µg/mL
same,mode of action,bacterial cell wall,bactericidal in action
same,spheroplasts,bacterial cell wall; certain bacterial strains exposed to the antibiotic,detection of spheroplasts
same,% ED50,[2]; alone,100%
same,s.c. ED50,"[2]; alone, therapy at 0 hour only, phosphonomycin as sodium salt",1420 µg
same,% ED50,[2]; [7],88%
same,s.c. ED50,[2]; [7],1250 µg
same,% ED50,[2]; [8],195%
same,s.c. ED50,[2]; [8],2760 µg
same,% ED50,[3]; alone,100%
same,s.c. ED50,[3]; [9],2130 µg
same,% ED50,[3]; [7],52%
same,s.c. ED50,[3]; [7],1110 µg
same,% ED50,[3]; [8],14%
same,s.c. ED50,[3]; [8],298 µg
same,tests in which phosphonomycin potentiated the effect of chloramphenicol,"pathogenic bacteria; almost 200 pathogenic bacteria, about 15,000 individual tests",88%
same,antagonism,pathogenic bacteria; between phosphonomycin and each of chloramphenicol and erythromycin,no antagonism
same,antagonism,pathogenic bacteria; various tests with human pathogens,does not exhibit any antagonism
same,synergism,"pathogenic bacteria; with chloramphenicol, erythromycin, tetracyclines, novobiocin and sulfisoxazole, inhibition at one quarter or less of MIC of each",acts synergistically
same,antagonism by the combination of antibiotics,[4],in no case was there any evidence of antagonism
same,tests in which potentiating effect of phosphonomycin is observed,[4],eight of the twelve tests
same,% ED50,[5]; alone,100%
same,"% ED50, Combined %",[5]; alone,100%
same,s.c. ED50,[5]; [9],1400 µg
same,% ED50,"[5]; tetracycline titrated, phosphonomycin constant 500",64%
same,% ED50,"[5]; tetracycline titrated, phosphonomycin constant 1000",71%
same,% ED50,"Escherichia coli 2017; chloramphenicol repeat test, 7 LD50, alone",100%
same,s.c. ED50,"Escherichia coli 2017; chloramphenicol repeat test, 7 LD50, alone, single dose at 0 hour, phosphonomycin as sodium salt",276 µg
same,% ED50,"Escherichia coli 2017; chloramphenicol repeat test, 7 LD50, chloramphenicol titrated, phosphonomycin constant 5",2%
same,% ED50,"Escherichia coli 2017; chloramphenicol repeat test, 7 LD50, chloramphenicol titrated, phosphonomycin constant 50",19%
same,% ED50,Escherichia coli 2017; [10],33%
same,s.c. ED50,Escherichia coli 2017; [10],92 µg
same,% ED50,Escherichia coli 2017; [11],9%
same,s.c. ED50,Escherichia coli 2017; [11],26 µg
same,% ED50,"Escherichia coli 2017; chloramphenicol test 1, 9 LD50, alone",100%
same,s.c. ED50,"Escherichia coli 2017; chloramphenicol test 1, 9 LD50, alone, single dose at 0 hour, phosphonomycin as sodium salt",905 µg
same,% ED50,"Escherichia coli 2017; chloramphenicol test 1, 9 LD50, chloramphenicol titrated, phosphonomycin constant 10",1%
same,% ED50,"Escherichia coli 2017; chloramphenicol test 1, 9 LD50, chloramphenicol titrated, phosphonomycin constant 100",11%
same,% ED50,Escherichia coli 2017; [12],100%
same,s.c. ED50,Escherichia coli 2017; [12],905 µg
same,% ED50,Escherichia coli 2017; [13],55%
same,s.c. ED50,Escherichia coli 2017; [13],500 µg
same,% ED50,"Escherichia coli 2017; tetracycline repeat test, 7 LD50, alone",100%
same,s.c. ED50,"Escherichia coli 2017; tetracycline repeat test, 7 LD50, alone, single dose at 0 hour, phosphonomycin as sodium salt",350 µg
same,% ED50,Escherichia coli 2017; [14],108%
same,s.c. ED50,Escherichia coli 2017; [14],380 µg
same,% ED50,Escherichia coli 2017; [15],111%
same,s.c. ED50,Escherichia coli 2017; [15],390 µg
same,% ED50,"Escherichia coli 2017; tetracycline repeat test, 7 LD50, tetracycline titrated, phosphonomycin constant 0.5",2%
same,% ED50,"Escherichia coli 2017; tetracycline repeat test, 7 LD50, tetracycline titrated, phosphonomycin constant 50",14%
same,% ED50,Escherichia coli 2017; [16],100%
same,"% ED50, Combined %",Escherichia coli 2017; [16],100%
same,s.c. ED50,"Escherichia coli 2017; tetracycline test 1, 9 LD50, alone, single dose at 0 hour, phosphonomycin as sodium salt",1000 µg
same,% ED50,Escherichia coli 2017; [17],100%
same,s.c. ED50,Escherichia coli 2017; [17],1000 µg
same,% ED50,Escherichia coli 2017; [18],43%
same,s.c. ED50,Escherichia coli 2017; [18],427 µg
same,% ED50,"Escherichia coli 2017; tetracycline test 1, 9 LD50, tetracycline titrated, phosphonomycin constant 5",.5%
same,% ED50,"Escherichia coli 2017; tetracycline test 1, 9 LD50, tetracycline titrated, phosphonomycin constant 50",5%
same,Phosphonomycin MIC in presence of ≤ MIC/4 of 2nd substance,Klebsiella pneumoniae; 2nd substance novobiocin,5.8
same,MIC,"Klebsiella pneumoniae; Klebsiella pneumoniae, alone, read-out: Phosphonomycin MIC",750 µg/mL
same,Phosphonomycin MIC in presence of ≤ MIC/4 of 2nd substance,Pseudomonas aeruginosa; 2nd substance erythromycin,12
same,Phosphonomycin MIC in presence of ≤ MIC/4 of 2nd substance,Pseudomonas aeruginosa; 2nd substance novobiocin,93.6
same,Phosphonomycin MIC in presence of ≤ MIC/4 of 2nd substance,Streptococcus faecalis [6]; 2nd substance chlortetracycline,48
same,Phosphonomycin MIC in presence of ≤ MIC/4 of 2nd substance,Streptococcus faecalis [6]; 2nd substance erythromycin,192
same,MIC,"Streptococcus faecalis [6]; Enterococcus faecalis, alone, read-out: Phosphonomycin MIC",93.6 µg/mL
same,Phosphonomycin MIC,"Streptococcus faecalis [6]; alone, in µg/mL",96 and 48
same,Phosphonomycin MIC in presence of 2nd substance,"Proteus vulgaris; 2nd substance chlortetracycline, MIC/2 instead of ≤ MIC/4",24 µg/mL
same,Phosphonomycin MIC in presence of ≤ MIC/4 of 2nd substance,Proteus vulgaris; 2nd substance erythromycin,96
same,Phosphonomycin MIC in presence of ≤ MIC/4 of 2nd substance,Proteus vulgaris; 2nd substance novobiocin,6.8
same,Phosphonomycin MIC in presence of ≤ MIC/4 of 2nd substance,Staphylococcus aureus; 2nd substance erythromycin,24
same,Phosphonomycin MIC in presence of ≤ MIC/4 of 2nd substance,Staphylococcus aureus; 2nd substance novobiocin,48
same,Phosphonomycin MIC in presence of ≤ MIC/4 of 2nd substance,Pseudomonas stutzeri; 2nd substance novobiocin,16
same,MIC,"Pseudomonas stutzeri; Stutzerimonas stutzeri, read-out: Phosphonomycin MIC",> 220 µg/mL
